Experimental data taken from patent US4552882A, “7-(1-Pyrrolyl) derivatives of 1-ethyl-1,4-dihydro-4-oxoquinoline-3-carboxylic acids and 1-ethyl-1,4-dihydro-4-oxo-1,8-naphthyridine-3-carboxylic acids and their use as antimicrobial agents” (Provesan, SA, priority 1983, dated 1985).
Converted amounts (≈) assume the structure as drawn.

How the values were obtained:
Assay in all cases: MIC in vitro
Type in all cases: cell-based
[1] = test system: Streptococcus faecalis ATCC 10541; conditions: Enterococcus faecalis, ATCC10541, Dextrose agar, 37° C., 20 hours
Text: (§1) (G. L. Daquet and Y. A. Chabbect, Techniques en bacteriologie (Bacteriological techniques), vol. 3, Flammarion Medecine Sciences, Paris, 1972 and W. B. Hugo and A. D. Rusell, Pharmaceutical Microbiology, Blackwell Scientific Publications, London, (1977)). Antibiotic medium no. 1 (seed agar) (Oxoid CM 327) Tryptone-soya broth (Oxoid CM 129) Ringer's physiological solution 1/4 (oxoid BR 52) Dextrose agar (BBL-11165) 0.1 N NaOH "Streptococcus faecalis" ATCC 10541 Each of the microorganisms is seeded by streaking in tubes of Antibiotic medium No. 1 (seed agar), which are then incubated at 37° C. for 20 hours. Using a culture loop, the cultures are then seeded in tryptone-soyabroth and incubated at 37° C. for 20 hours. The culture obtained is diluted to 1/4 with Ringer's physiological solution, so as to obtain a standardized suspension of 10^7 -10^9 cfu/ml for each organism. Starting from a solution of 1,000 μg/ml in 0.1 N NaOH, each product is diluted in Dextrose agar (previously melted and maintained at 50° C.), with successive dilutions so as to obtain the following concentrations: 64--32--16--8--4--2--1--0.5--0.25--0.125 μg of derivative/ml medium. For each product, the solution of each concentration is subsequently distributed into Petri dishes 10 cm in diameter, with 10 ml of medium per dish and the same number of dishes as microorganisms to be tested. As soon as the medium has cooled, the dishes are seeded with the inoculations using 0.4 ml of inoculation per dish. They are spread with a Driglasky loop and the supernatant is removed. The seeded dishes are incubated at 37° C. for 20 hours.

[2] = test system: Pseudomonas aeruginosa ATCC 25115; conditions: ATCC25115, Dextrose agar, 37° C., 20 hours
Text: as §1, with “"Pseudomonas aeruginosa"” for “"Streptococcus faecalis"”, “25115” for “10541”

[3] = test system: Bacillus subtilis ATCC 6633; conditions: ATCC6633, Dextrose agar, 37° C., 20 hours
Experimental: as §1, with “"Bacillus subtilis"” for “"Streptococcus faecalis"”, “6633” for “10541”

Compound | MIC [1] [µg/mL] | MIC [2] [µg/mL] | MIC [3] [µg/mL]
CCn1cc(C(=O)O)c(=O)c2cc(F)c(-n3cccc3)nc21 [Example 4, 1-ethyl-1,4-dihydro-4-oxo-6-fluoro-7-(1-pyrrolyl)-1,8-naphthyridine-3-carboxylic acid] | 8 (≈ 26.6 µM) | 32 (≈ 106 µM) | 0.03 (≈ 0.0996 µM)
CCn1cc(C(=O)O)c(=O)c2ccc(-n3cccc3)cc21 [Example 1, 7-(1-pyrrolyl)-1-ethyl-1,4-dihydro-4-oxo-3-quinolinecarboxylic acid] | 16 (≈ 56.7 µM) | > 64 | < 0.125
CCn1cc(C(=O)O)c(=O)c2cc(F)c(-n3cccc3)cc21 [Example 2, 6-fluoro-7-(1-pyrrolyl)-1-ethyl-1,4-dihydro-4-oxo-3-quinolinecarboxylic acid] | 1 (≈ 3.33 µM) | 16 (≈ 53.3 µM) | < 0.125
CCn1cc(C(=O)O)c(=O)c2ccc(-n3cccc3)nc21 [Example 3, 1-ethyl-1,4-dihydro-4-oxo-7-(1-pyrrolyl)-1,8-naphthyridine-3-carboxylic acid] | 32 (≈ 113 µM) | > 64 | 0.25 (≈ 0.882 µM)
CCn1cc(C(=O)O)c(=O)c2cnc(N3CCNCC3)nc21 [Pipemidic acid, reference compound] | > 64 | 32 (≈ 105 µM) | 8 (≈ 26.4 µM)
